Reference: publication PMC3846386 (Journal of medicinal chemistry, 2013)

Tests used:
[1] = target: T1, GFP-FLMBT (GFP fusion of full-length L3MBTL3) (Homo sapiens, UniProt Q96JM7); assay: Displacement of mero76-1 from GFP-FLMBT in HEK293 cells; format: cell-based
T1 sequence (Q96JM7 1-780): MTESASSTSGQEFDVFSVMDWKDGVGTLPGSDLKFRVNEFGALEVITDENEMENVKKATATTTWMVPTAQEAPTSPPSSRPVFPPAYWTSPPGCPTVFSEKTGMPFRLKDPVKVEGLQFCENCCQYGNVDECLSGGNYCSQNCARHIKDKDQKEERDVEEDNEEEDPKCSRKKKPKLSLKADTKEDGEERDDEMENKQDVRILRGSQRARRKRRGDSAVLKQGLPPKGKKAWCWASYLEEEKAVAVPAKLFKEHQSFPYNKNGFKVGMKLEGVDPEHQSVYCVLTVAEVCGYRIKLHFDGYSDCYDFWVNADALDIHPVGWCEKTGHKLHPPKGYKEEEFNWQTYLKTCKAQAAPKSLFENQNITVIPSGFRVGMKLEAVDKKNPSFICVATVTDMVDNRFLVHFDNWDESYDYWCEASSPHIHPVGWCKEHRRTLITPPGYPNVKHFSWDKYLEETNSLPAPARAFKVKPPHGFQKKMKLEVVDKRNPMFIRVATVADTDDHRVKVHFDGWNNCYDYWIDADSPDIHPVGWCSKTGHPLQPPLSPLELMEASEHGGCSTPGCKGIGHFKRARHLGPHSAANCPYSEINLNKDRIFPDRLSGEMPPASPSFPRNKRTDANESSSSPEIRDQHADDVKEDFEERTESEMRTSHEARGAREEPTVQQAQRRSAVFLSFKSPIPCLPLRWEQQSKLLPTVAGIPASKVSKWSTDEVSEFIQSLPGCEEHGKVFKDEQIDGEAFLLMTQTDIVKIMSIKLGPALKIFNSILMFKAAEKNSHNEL

[2] = target: T2, endogenous L3MBTL3 (Homo sapiens, UniProt Q96JM7); assay: Biotin-1 pull-down; format: binding; conditions: G-401 cell lysates, Western analysis
T2 sequence (Q96JM7 1-780): T1 sequence (Q96JM7 1-780)

[3] = tested on: GFP fusion protein containing the three MBT domains of L3MBTL3 (GFP-3MBT); conditions: read-out: EC50, effect on subnuclear localization of GFP-3MBT; cells; cited from earlier work
[4] = CellTiter-Glo luminescent cell viability assay; format: cell-based
[5] = target: T3, L3MBTL1 (Homo sapiens, UniProt Q9Y468); assay: Isothermal titration calorimetry; format: binding; conditions: in words
T3 sequence (Q9Y468 1-772 isoform Q9Y468-1): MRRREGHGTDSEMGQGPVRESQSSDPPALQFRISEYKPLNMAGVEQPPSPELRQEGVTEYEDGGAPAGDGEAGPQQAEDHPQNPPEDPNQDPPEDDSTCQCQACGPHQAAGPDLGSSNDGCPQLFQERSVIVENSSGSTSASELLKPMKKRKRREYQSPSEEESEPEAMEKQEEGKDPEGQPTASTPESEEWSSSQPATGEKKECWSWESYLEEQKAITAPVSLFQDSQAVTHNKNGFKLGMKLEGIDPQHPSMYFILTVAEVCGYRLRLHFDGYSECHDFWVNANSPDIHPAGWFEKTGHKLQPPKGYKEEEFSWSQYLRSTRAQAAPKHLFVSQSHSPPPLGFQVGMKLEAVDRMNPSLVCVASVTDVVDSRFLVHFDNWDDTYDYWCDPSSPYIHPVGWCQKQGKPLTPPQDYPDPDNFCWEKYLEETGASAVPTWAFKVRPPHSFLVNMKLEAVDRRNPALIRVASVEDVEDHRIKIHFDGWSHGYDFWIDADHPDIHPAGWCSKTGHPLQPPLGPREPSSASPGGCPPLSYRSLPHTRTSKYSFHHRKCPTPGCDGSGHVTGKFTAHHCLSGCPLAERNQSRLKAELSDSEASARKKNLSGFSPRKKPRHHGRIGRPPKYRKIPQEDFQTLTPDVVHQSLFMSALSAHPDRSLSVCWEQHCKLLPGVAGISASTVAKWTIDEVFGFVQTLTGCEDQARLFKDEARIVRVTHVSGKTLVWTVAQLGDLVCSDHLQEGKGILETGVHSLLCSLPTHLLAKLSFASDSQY

[6] = tested on: L3MBTL1 L361F
[7] = target: T4, L3MBTL3 (Homo sapiens, UniProt Q96JM7); assay: AlphaScreen competition assay; conditions: in words
T4 sequence (Q96JM7 1-780): T1 sequence (Q96JM7 1-780)

Compound: O=C(c1ccc(C(=O)N2CCC(N3CCCC3)CC2)c(Nc2ccccc2)c1)N1CCC(N2CCCC2)CC1 [Compound 1]
- displacement of mero76-1 from GFP-L3MBTL3 ([1]; 1 equivalent relative to mero76-1): displace mero76-1 from GFP-L3MBTL3
- displacement of mero76-1 from GFP-FLMBT ([1]; 1 or 5 equivalents relative to mero76-1 (both concentrations)): largely displaces mero76-1 from GFP-FLMBT
- competition with biotin-1 for binding to endogenous L3MBTL3 [2]: competed off with soluble 1
- EC50 [3]: ~500 nM
- cytotoxicity, no observable level up to [4]: > 100 µM

Compound: O=C(c1ccc(C(=O)N2CCC(N3CCCC3)CC2)cc1)N1CCC(N2CCCC2)CC1 [Compound 5]
- cytotoxicity, no observable level up to [4]: > 100 µM

Compound: CCN1Cc2ccc(NC(=O)c3ccc(C(=O)N4CCC(C5CCCN5)CC4)cc3)cc2C1 (centres unmarked) [Compound 2]
- cytotoxicity, no observable level up to [4]: > 100 µM

Compound: O=C(c1ccc(C(=O)N2CCC(N3CCCC3)CC2)c(NCc2ccccc2)c1)N1CCC(N2CCCC2)CC1 [Compound 49]
- affinity for L3MBTL1 by follow-up ITC [5]: micromolar affinity

Compound: O=C(c1cccc(Br)c1)N1CCC(N2CCCC2)CC1 [Compound 57]
- change in affinity for L3MBTL1 L361F relative to wildtype L3MBTL1 by ITC [6]: ≤ 2 fold
- binding to L3MBTL3 versus L3MBTL1 [7]: equally well

Compound: O=C(c1ccc(C(=O)N2CCC(N3CCCCC3)CC2)cc1)N1CCC(N2CCCCC2)CC1 [Compound 37]
- competition with biotin-1 for binding to endogenous L3MBTL3 [2]: failed to compete for binding to endogenous L3MBTL3
